Laboratory results as given in article PMC8450076, “Structural and mechanistic insights into the Artemis endonuclease and strategies for its inhibition” (Nucleic Acids Research, 2021).

Legend:
Artemis (SNM1C/DCLRE1C) [1] = target: T1, Artemis (SNM1C/DCLRE1C) (Homo sapiens, UniProt Q96SD1); assay: biochemical
Target sequence in this assay (Q96SD1 whole entry, the tested form may be a part): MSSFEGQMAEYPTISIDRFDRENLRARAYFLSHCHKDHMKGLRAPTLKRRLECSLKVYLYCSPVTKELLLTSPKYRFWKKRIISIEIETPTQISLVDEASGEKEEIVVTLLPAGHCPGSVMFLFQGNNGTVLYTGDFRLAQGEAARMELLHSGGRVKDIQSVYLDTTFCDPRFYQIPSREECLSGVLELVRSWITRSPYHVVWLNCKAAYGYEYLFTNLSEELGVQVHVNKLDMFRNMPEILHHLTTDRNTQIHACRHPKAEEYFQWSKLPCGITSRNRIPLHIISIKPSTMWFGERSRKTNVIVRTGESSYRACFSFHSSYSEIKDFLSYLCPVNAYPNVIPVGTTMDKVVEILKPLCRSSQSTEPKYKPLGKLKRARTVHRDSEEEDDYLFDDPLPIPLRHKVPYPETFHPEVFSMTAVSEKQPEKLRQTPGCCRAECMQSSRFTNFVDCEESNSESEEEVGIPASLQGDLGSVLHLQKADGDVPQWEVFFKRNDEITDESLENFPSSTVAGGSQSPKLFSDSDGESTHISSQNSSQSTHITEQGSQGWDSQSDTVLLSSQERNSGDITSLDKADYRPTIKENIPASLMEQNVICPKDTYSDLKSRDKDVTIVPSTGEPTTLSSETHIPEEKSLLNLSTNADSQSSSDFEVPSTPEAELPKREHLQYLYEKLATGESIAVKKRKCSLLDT

Artemis (SNM1C/DCLRE1C) [2] = target: T1, Artemis (SNM1C/DCLRE1C); assay: X-ray crystal structure ([…] Å) plus real-time fluorescence-based nuclease assay (IC50); format: biochemical; parameters: truncated Artemis catalytic domain, MBL-β-CASP (aa 1-361)
Excerpt: We solved a structure of ceftriaxone bound to Artemis
Target sequence in this assay (Q96SD1 1-361): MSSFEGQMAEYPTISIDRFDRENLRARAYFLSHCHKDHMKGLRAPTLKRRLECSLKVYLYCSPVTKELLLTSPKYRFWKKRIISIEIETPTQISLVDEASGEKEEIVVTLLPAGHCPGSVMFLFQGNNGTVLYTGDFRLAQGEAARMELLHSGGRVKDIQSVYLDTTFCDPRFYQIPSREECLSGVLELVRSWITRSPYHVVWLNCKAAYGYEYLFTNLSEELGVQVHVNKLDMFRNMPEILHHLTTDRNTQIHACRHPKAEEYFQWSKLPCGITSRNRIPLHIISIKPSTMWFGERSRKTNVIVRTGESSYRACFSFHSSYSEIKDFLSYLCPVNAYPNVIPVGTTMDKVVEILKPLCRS

Compound | IC50 (Artemis (SNM1C/DCLRE1C) [1]) | other results
CC[P](CC)(CC)=[Au][S][C@@H]1O[C@H](COC(C)=O)[C@@H](OC(C)=O)[C@H](OC(C)=O)[C@H]1OC(C)=O [auranofin] | 46 µM | –
CO/N=C(\C(=O)N[C@@H]1C(=O)N2C(C(=O)O)=C(CSc3nc(=O)c(=O)[nH]n3C)CS[C@H]12)c1csc(N)n1 [ceftriaxone] | – | IC50 (Artemis (SNM1C/DCLRE1C) [2]): 65 µM
CCN(CC)C(=S)SSC(=S)N(CC)CC [disulfiram] | – | IC50 (Artemis (SNM1C/DCLRE1C) [1]; read-out: IC50): ~10.8 µM
O=c1c2ccccc2[se]n1-c1ccccc1 [ebselen] | ~8.5 µM | –
